Test results published in patent US20120122991A1, “METHOD FOR TREATING CANCER BY INCREASING AMP-ACTIVATED KINASE ACTIVITY” (Dana-Farber Cancer Institute, Inc., priority 2003, published 2012).

Columns and labels:
tuberin = assay: Tuberin mobility shift on SDS-PAGE in transfected HeLa cells; assay type: cell-based, human
Source text: FIG. 7A: In vitro kinase assay using FLAG-tagged tuberin as a substrate for LKB1-activated AMPK. Purified E. coli produced recombinant AMPK was activated by an in vitro kinase assay with wild-type LKB1, kinase-dead LKB1, or untransfected control immunoprecipitates then isolated and assayed for its ability to phosphorylate tuberin in vitro. FIG. 7B: Comparison of recombinant Akt-mediated tuberin phosphorylation in vitro to recombinant AMPK phosphorylation in vitro. Note that only AMPK-mediated phosphorylation induces a significant mobility shift in tuberin on SDS-PAGE. C: HeLa cells were co-transfected with FLAG-tagged tuberin, and empty vector or wild-type LKB1 and treated with 2 mM AICAR where indicated. Total cell lysates were then immunoblotted with anti-FLAG antisera to detect the introduced tuberin. Note the significant mobility shift induced by AICAR treatment of LKB1-expressing cells. […] FIG. 7D: HeLa cells were transfected with HA-tagged S6K1 and FLAG-tagged wild-type LKB1 along with empty vector, or dominant negative AMPK alpha1 (GST-tagged) or dominant negative AMPK alpha2 (myc tagged). Cells were treated with 2 mM AICAR for 2 h where indicated. HA-immunoprecipitates were immunoblotted with phospho-Thr389 S6K1 antisera to detect activated S6K1 and reprobed for total HA-S6K1 levels. […]

quiescent cells = settings: cited from earlier work

Structure (SMILES): NC(=O)c1ncn([C@@H]2O[C@H](CO)[C@@H](O)[C@H]2O)c1N [AICAR, 5-aminoimidazole-4-carboxamide 1-β-D-ribofuranoside]
- tuberin mobility on SDS-PAGE (tuberin; HeLa cells expressing wild-type LKB1, 2 mM AICAR): significant reduction in tuberin mobility
- tuberin mobility on SDS-PAGE (tuberin; HeLa cells in the absence of LKB1 expression, AICAR): no effect on tuberin mobility
- glucocorticoid induced apoptosis (quiescent cells): protects them from glucocorticoid induced apoptosis
